Measured values as given in the CheMixHub viscosity set.

Test: xn = mol fraction of the nth substance listed

CC(C)CC(C)C + CCCCCCCCCCCCCCCC
101 kPa, x1 = 0.5
Conditions | viscosity [mPa·s]
298 K | 1.314
318 K | 0.9631

CC(C)c1cc(C(C)C)cc(C(C)C)c1 + CCCCCCCCCCCCCCCC
viscosity [mPa·s], 102 kPa
Conditions | x1 = 0.1209 | x1 = 0.1996 | x1 = 0.3001 | x1 = 0.3994 | x1 = 0.5003 | x1 = 0.6004 | x1 = 0.6998 | x1 = 0.7999 | x1 = 0.8993
293.15 K | 3.41 | 3.37 | 3.35 | 3.34 | 3.37 | 3.43 | 3.53 | 3.67 | 3.86
303.15 K | 2.7 | 2.67 | 2.64 | 2.63 | 2.64 | 2.66 | 2.71 | 2.79 | 2.9
313.15 K | 2.19 | 2.16 | 2.13 | 2.12 | 2.12 | 2.13 | 2.15 | 2.19 | 2.26
323.15 K | 1.81 | 1.79 | 1.76 | 1.75 | 1.74 | 1.74 | 1.75 | 1.77 | 1.81

CC(C)OCCO + CCCCCCCCCCO
viscosity [mPa·s], 101 kPa
Conditions | 298.15 K | 303.15 K | 308.15 K
x1 = 0.0501 | 11.21 | 9.204 | 7.728
x1 = 0.1066 | 10.53 | 8.634 | 7.235
x1 = 0.1507 | 10.01 | 8.194 | 6.853
x1 = 0.253 | 8.94 | 7.311 | 6.115
x1 = 0.3119 | 8.302 | 6.783 | 5.668
x1 = 0.3516 | 7.856 | 6.41 | 5.352
x1 = 0.4159 | 7.17 | 5.836 | 4.871
x1 = 0.5018 | 6.315 | 5.145 | 4.3
x1 = 0.6016 | 5.388 | 4.398 | 3.692
x1 = 0.7014 | 4.518 | 3.715 | 3.149
x1 = 0.8012 | 3.69 | 2.991 | 2.564
x1 = 0.854 | 3.267 | 2.661 | 2.308
x1 = 0.9003 | 2.873 | 2.385 | 2.097
x1 = 0.9507 | 2.516 | 2.166 | 1.948

CCCCOCCO + CCCCCCCCCCO
101 kPa
Conditions | viscosity [mPa·s]
303.15 K, x1 = 0.1024 | 8.155
308.15 K, x1 = 0.7009 | 3.195

CC(C)OCCO + CCCCCCCCO
viscosity [mPa·s], 101 kPa
Conditions | 298.15 K | 303.15 K | 308.15 K
x1 = 0.0517 | 7.288 | 6.066 | 5.217
x1 = 0.1016 | 6.902 | 5.729 | 4.938
x1 = 0.1531 | 6.517 | 5.401 | 4.671
x1 = 0.2013 | 6.178 | 5.106 | 4.415
x1 = 0.2524 | 5.832 | 4.817 | 4.162
x1 = 0.3033 | 5.49 | 4.523 | 3.906
x1 = 0.4 | 4.893 | 4.027 | 3.482
x1 = 0.5012 | 4.314 | 3.556 | 3.086
x1 = 0.618 | 3.706 | 3.07 | 2.691
x1 = 0.7017 | 3.325 | 2.776 | 2.459
x1 = 0.8102 | 2.849 | 2.418 | 2.155
x1 = 0.8492 | 2.721 | 2.322 | 2.091
x1 = 0.9046 | 2.477 | 2.157 | 1.986
x1 = 0.9472 | 2.36 | 2.064 | 1.911

CCCCCCCCN(CCCCCCCC)CCCCCCCC + CCCCCCCCO
Conditions | viscosity [mPa·s]
298 K, 101.3 kPa, x1 = 0.00811 | 7.341

CCCCOCCO + CCCCCCCCO
viscosity [mPa·s], 101 kPa
Conditions | 298.15 K | 303.15 K | 308.15 K
x1 = 0.6004 | 3.885 | – | 2.965
x1 = 0.8027 | – | 2.825 | 2.545

c1ccc2c(c1)CCCC2 + CCCCCCCCO
viscosity [mPa·s], 100 kPa
Conditions | x1 = 0.0993 | x1 = 0.1995 | x1 = 0.2994 | x1 = 0.3997 | x1 = 0.4996 | x1 = 0.5996 | x1 = 0.6996 | x1 = 0.7994 | x1 = 0.8994
293.15 K | 7.58 | 6.37 | 5.34 | 4.49 | 3.8 | 3.25 | 2.83 | 2.53 | 2.31
298.15 K | 6.37 | 5.38 | 4.55 | 3.86 | 3.3 | 2.85 | 2.51 | 2.25 | 2.09
303.15 K | 5.39 | 4.59 | 3.92 | 3.35 | 2.89 | 2.52 | 2.22 | 2.01 | 1.88
308.15 K | 4.61 | 3.95 | 3.39 | 2.92 | 2.54 | 2.23 | 1.99 | 1.81 | 1.7
313.15 K | 3.95 | 3.42 | 2.97 | 2.58 | 2.26 | 2 | 1.79 | 1.64 | 1.55
318.15 K | 3.42 | 2.99 | 2.61 | 2.29 | 2.02 | 1.8 | 1.63 | 1.51 | 1.43
323.15 K | 2.96 | 2.61 | 2.3 | 2.03 | 1.81 | 1.62 | 1.48 | 1.37 | 1.32

CC(C)OCCO + CCCCCCO
viscosity [mPa·s], 101 kPa
Conditions | 298.15 K | 303.15 K | 308.15 K
x1 = 0.0533 | 4.409 | 3.75 | 3.294
x1 = 0.1018 | 4.192 | 3.555 | 3.096
x1 = 0.1512 | 3.993 | 3.38 | 2.917
x1 = 0.2013 | 3.789 | 3.2 | 2.752
x1 = 0.254 | 3.6 | 3.033 | 2.601
x1 = 0.3074 | 3.4 | 2.857 | 2.449
x1 = 0.4034 | 3.103 | 2.596 | 2.216
x1 = 0.5044 | 2.834 | 2.374 | 2.028
x1 = 0.6042 | 2.631 | 2.216 | 1.894
x1 = 0.7118 | 2.449 | 2.079 | 1.79
x1 = 0.8046 | 2.312 | 1.985 | 1.758
x1 = 0.8418 | 2.305 | 1.991 | 1.777
x1 = 0.9001 | 2.262 | 1.975 | 1.763
x1 = 0.953 | 2.226 | 1.952 | 1.771

CCCCCCCCN(CCCCCCCC)CCCCCCCC + CCCCCCO
Conditions | viscosity [mPa·s]
298 K, 101.3 kPa, x1 = 0.00638 | 4.722

CC(C)OCCO + CCCCCO
298.15 K, 101.33 kPa
Conditions | viscosity [mPa·s]
x1 = 0.0159 | 3.466
x1 = 0.0312 | 3.405
x1 = 0.0461 | 3.354
x1 = 0.0653 | 3.292
x1 = 0.0867 | 3.234
x1 = 0.1097 | 3.16
x1 = 0.137 | 3.099
x1 = 0.1627 | 3.029
x1 = 0.1931 | 2.952
x1 = 0.2267 | 2.881
x1 = 0.2585 | 2.819
x1 = 0.2966 | 2.748
x1 = 0.3417 | 2.677
x1 = 0.3843 | 2.61
x1 = 0.4446 | 2.526
x1 = 0.4848 | 2.473
x1 = 0.4956 | 2.461
x1 = 0.5246 | 2.432
x1 = 0.5561 | 2.397
x1 = 0.6012 | 2.357
x1 = 0.6643 | 2.297
x1 = 0.7168 | 2.261
x1 = 0.7741 | 2.218
x1 = 0.8198 | 2.191
x1 = 0.8573 | 2.167
x1 = 0.8964 | 2.142
x1 = 0.9259 | 2.133
x1 = 0.9558 | 2.116
x1 = 0.9775 | 2.11

O=C(Cc1ccccc1)Cc1ccccc1 + CCCCCOC(C)=O
298.15 K, 101 kPa
Conditions | viscosity [mPa·s]
x1 = 0.0269 | 0.8322
x1 = 0.0305 | 0.8358

Oc1cccc(Cl)c1 + CCCCCOC(C)=O
Conditions | viscosity [mPa·s]
298.15 K, 101 kPa, x1 = 0.5 | 1.244

CCCCCC(C)C + CCCCO
viscosity [mPa·s], 100 kPa
Conditions | x2 = 0.1005 | x2 = 0.2014 | x2 = 0.3002 | x2 = 0.4 | x2 = 0.5004 | x2 = 0.6006 | x2 = 0.7 | x2 = 0.8001 | x2 = 0.9
293.15 K | 0.528 | 0.576 | 0.634 | 0.741 | 0.891 | 1.1 | 1.37 | 1.74 | 2.24
303.15 K | 0.467 | 0.508 | 0.549 | 0.635 | 0.748 | 0.902 | 1.11 | 1.38 | 1.75
313.15 K | 0.413 | 0.447 | 0.476 | 0.548 | 0.633 | 0.751 | 0.906 | 1.11 | 1.39
323.15 K | 0.364 | 0.391 | 0.422 | 0.473 | 0.539 | 0.633 | 0.751 | 0.907 | 1.12

COC(=O)c1ccccc1 + CCCCO
viscosity [mPa·s], 100 kPa
Conditions | x1 = 0.05 | x1 = 0.1 | x1 = 0.2 | x1 = 0.3 | x1 = 0.45 | x1 = 0.6 | x1 = 0.749 | x1 = 0.849 | x1 = 0.899 | x1 = 0.95
293.2 K | 2.62 | 2.397 | 2.097 | 1.922 | 1.787 | 1.746 | 1.777 | 1.836 | 1.885 | 1.95
298.2 K | 2.308 | 2.119 | 1.866 | 1.719 | 1.606 | 1.574 | 1.604 | 1.659 | 1.703 | 1.761
303.2 K | 2.041 | 1.882 | 1.668 | 1.545 | 1.453 | 1.429 | 1.459 | 1.509 | 1.549 | 1.6
308.2 K | 1.813 | 1.678 | 1.5 | 1.398 | 1.32 | 1.303 | 1.333 | 1.381 | 1.417 | 1.464
313.2 K | 1.616 | 1.505 | 1.354 | 1.267 | 1.204 | 1.193 | 1.224 | 1.269 | 1.303 | 1.345
